According to article PMC555771 (Journal of Biomedicine and Biotechnology, 2004):

Experiments:
[1] = test system: CETP; details: ref [10]; cited from earlier work
[2] = test system: cynomolgus monkeys fed the HCHF diet; type: in vivo, cynomolgus monkey; details: single iv injection 20 mg/kg, at day 7, n=2, P<.05
[3] = test system: baboons fed the HCHF diet; type: in vivo, baboon
[4] = test system: baboons; test: IgG levels, body weights and food consumption in baboons; details: during the study (data not shown)
[5] = test system: baboons; details: in vivo

Q: What does the source list for “truncated apoC-I peptide: 38 amino acid N-terminal fragment of apoC-I peptide based on human sequences, made by solid-phase synthesis; CETP inhibitor (TPDVSSALDKLKEFGNTLEDKARELISRIKQSELSAKM; UniProt P02654 27-64, looked up, fragment)”?
A: CETP activity in the plasma of low-HDL baboons [1]: inhibited CETP activity; maximum decrease in plasma LDL cholesterol levels [2]: 26.5 ± 4.5%; day by which VLDL + LDL cholesterol reached baseline values ([3]; intravenous, 10, 15, 20 mg/kg on days 0, 7, 14, n=3): ≤ 25 days; maximum increase in HDL cholesterol concentration ([3]; intravenous, 10, 15, 20 mg/kg on days 0, 7, 14, n=3, P<.05): 20%; change in plasma triglycerides ([3]; intravenous, 10, 15, 20 mg/kg on days 0, 7, 14, until day 19, except at day 4, n=3): decreased; day on which VLDL + LDL cholesterol returned to baseline values ([3]; subcutaneous, 10, 15, 20 mg/kg on days 0, 7, 14, n=3): 28 days; maximum decrease in VLDL + LDL cholesterol ([3]; subcutaneous, 10, 15, 20 mg/kg on days 0, 7, 14, on day 19, n=3): 20%; maximum increase in HDL cholesterol ([3]; subcutaneous, 10, 15, 20 mg/kg on days 0, 7, 14, on day 23, n=3): 20%; body weights [4]: no change; food consumption [4]: no change; plasma IgG levels, change in response to peptide infusion [5]: did not change significantly
